Laboratory results published in ChEMBL document CHEMBL1201862, “PubChem BioAssay data set” (2004).
Where “and” joins values, the source holds several entries; their conditions need not be identical. Equal entries are not always repeated.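 Grown in 96-well plates, cells were treated for 48 hours with each compound at five concentrations. Insufficient inhibition: endpoint recorded as highest concentration tested. GI50 = concentration required for 50% inhibition of growth.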 Calls of active or inactive are those of the source. Rule as the data show it: active = GI50 up to about 1.1 µM and inactive = higher.

Legend:
Experiment in all cases: NCI tumour cell line growth inhibition, 48 h
HCT-15 = system: HCT-15
KM12 = system: KM12
UO-31 = system: UO-31
OVCAR-8 = system: OVCAR-8
MDA-N = system: MDA-N
Hs-578T = system: Hs-578T
HCT-116 = system: HCT-116
OVCAR-5 = system: OVCAR-5
BT-549 = system: BT-549
NCI-H460 = system: NCI-H460
SF-268 = system: SF-268
LOX IMVI = system: LOX IMVI
EKVX = system: EKVX
SNB-75 = system: SNB-75
PC-3 = system: PC-3
M14 = system: M14
COLO 205 = system: COLO 205
K562 = system: K562
DU-145 = system: DU-145

O=C1C(Cl)C2(CC(/C=C/c3ccccc3O)=NN2c2cccc(S(=O)(=O)O)c2)N1c1nc2ccccc2s1 (centres undefined)
GI50 (HCT-15): 18.2 µM | GI50 (KM12): 14.8 µM (inactive) | GI50 (UO-31): 13.1 µM (inactive) | GI50 (OVCAR-8): 24.3 µM (inactive) | GI50 (MDA-N): 18.6 µM (inactive) | GI50 (Hs-578T): 23.9 µM (inactive) | GI50 (HCT-116): 15.4 µM (inactive) | GI50 (OVCAR-5): 22.3 µM (inactive) | GI50 (BT-549): 18.1 µM (inactive) | GI50 (NCI-H460): 15.1 µM (inactive) | GI50 (SF-268): 16 µM (inactive) | GI50 (LOX IMVI): 9.62 µM (inactive) | GI50 (EKVX): 18.6 µM (inactive) | GI50 (SNB-75): 38.8 µM (inactive) | GI50 (PC-3): 24.8 µM (inactive) | GI50 (M14): 18.3 µM (inactive) | GI50 (COLO 205): 18.9 µM (inactive) | GI50 (K562): 20.2 µM (inactive)

Cc1cc2c(C)cc(=O)[nH]c2cc1N
GI50 (HCT-15): > 100 µM | GI50 (KM12): > 100 µM (inactive) | GI50 (UO-31): > 100 µM (inactive) | GI50 (OVCAR-8): > 100 µM (inactive) | GI50 (MDA-N): > 100 µM (inactive) | GI50 (HCT-116): > 100 µM (inactive) | GI50 (OVCAR-5): > 100 µM (inactive) | GI50 (BT-549): > 100 µM (inactive) | GI50 (NCI-H460): 65.5 µM (inactive) | GI50 (DU-145): > 100 µM (inactive) | GI50 (LOX IMVI): > 100 µM (inactive) | GI50 (EKVX): 67.6 µM (inactive) | GI50 (SNB-75): 84.3 µM (inactive) | GI50 (PC-3): 34.8 µM (inactive) | GI50 (M14): > 100 µM (inactive) | GI50 (COLO 205): 60.1 µM (inactive) | GI50 (K562): > 100 µM (inactive)

CCN(C(=O)N[C@@H](CC(C)C)C(=O)NCC(=O)OC)c1ccccc1
GI50 (HCT-15): > 100 µM | GI50 (KM12): > 100 µM (inactive) | GI50 (UO-31): > 100 µM (inactive) | GI50 (OVCAR-8): > 100 µM (inactive) | GI50 (MDA-N): > 100 µM (inactive) | GI50 (HCT-116): > 100 µM (inactive) | GI50 (OVCAR-5): > 100 µM (inactive) | GI50 (BT-549): > 100 µM (inactive) | GI50 (NCI-H460): 85.7 µM (inactive) | GI50 (DU-145): > 100 µM (inactive) | GI50 (LOX IMVI): 44.3 µM (inactive) | GI50 (EKVX): > 100 µM (inactive) | GI50 (SNB-75): 72.9 µM (inactive) | GI50 (PC-3): > 100 µM (inactive) | GI50 (M14): > 100 µM (inactive) | GI50 (COLO 205): > 100 µM (inactive) | GI50 (K562): 38.4 µM (inactive)

CC1=NN(c2nc(N)nc(/C(C#N)=C/c3cccn3-c3cc(Cl)cc(Cl)c3)n2)C(C)(C)C1
GI50 (HCT-15): > 100 µM | GI50 (KM12): > 100 µM (inactive) | GI50 (UO-31): > 100 µM (inactive) | GI50 (OVCAR-8): 12 µM (inactive) | GI50 (MDA-N): > 100 µM (inactive) | GI50 (Hs-578T): 32.9 µM (inactive) | GI50 (HCT-116): > 100 µM (inactive) | GI50 (OVCAR-5): > 100 µM (inactive) | GI50 (BT-549): > 100 µM (inactive) | GI50 (NCI-H460): > 100 µM (inactive) | GI50 (DU-145): > 100 µM (inactive) | GI50 (SF-268): 15.5 µM (inactive) | GI50 (LOX IMVI): 83 µM (inactive) | GI50 (EKVX): > 100 µM (inactive) | GI50 (SNB-75): 17 µM (inactive) | GI50 (PC-3): 11.5 µM (inactive) | GI50 (M14): > 100 µM (inactive) | GI50 (COLO 205): > 100 µM (inactive)

O=C1C/C(=C\O)C(=O)c2ccccc2N1
GI50 (HCT-15): > 100 µM | GI50 (KM12): > 100 µM (inactive) | GI50 (UO-31): > 100 µM (inactive) | GI50 (OVCAR-8): > 100 µM (inactive) | GI50 (MDA-N): > 100 µM (inactive) | GI50 (Hs-578T): > 100 µM (inactive) | GI50 (HCT-116): > 100 µM (inactive) | GI50 (OVCAR-5): > 100 µM (inactive) | GI50 (BT-549): > 100 µM (inactive) | GI50 (NCI-H460): > 100 µM (inactive) | GI50 (DU-145): > 100 µM (inactive) | GI50 (SF-268): > 100 µM (inactive) | GI50 (LOX IMVI): > 100 µM (inactive) | GI50 (EKVX): > 100 µM (inactive) | GI50 (PC-3): > 100 µM (inactive) | GI50 (M14): > 100 µM (inactive) | GI50 (COLO 205): > 100 µM (inactive) | GI50 (K562): > 100 µM (inactive)

NC(=S)N/N=C\c1nccc2ccccc12
GI50 (HCT-15): 0.369 µM | GI50 (KM12): 0.885 µM (active) | GI50 (UO-31): 0.36 µM (active) | GI50 (OVCAR-8): 0.209 µM (active) | GI50 (MDA-N): 0.429 µM (active) | GI50 (Hs-578T): 10.7 µM (inactive) | GI50 (HCT-116): 0.44 µM (active) | GI50 (OVCAR-5): 0.264 µM (active) | GI50 (BT-549): 0.424 µM (active) | GI50 (NCI-H460): 0.267 µM (active) | GI50 (DU-145): 0.404 µM (active) | GI50 (SF-268): 0.216 µM (active) | GI50 (LOX IMVI): 0.324 µM (active) | GI50 (EKVX): 0.302 µM (active) | GI50 (PC-3): 0.685 µM (active) | GI50 (M14): 0.383 µM (active) | GI50 (COLO 205): 0.302 µM (active) | GI50 (K562): 0.731 µM (active)

COc1ccc(-c2nc(N(C)C)c3ccccc3n2)cc1
GI50 (HCT-15): 12.1 µM | GI50 (KM12): 13.4 µM (inactive) | GI50 (UO-31): 3.36 µM (inactive) | GI50 (OVCAR-8): 11.3 µM (inactive) | GI50 (MDA-N): 14.9 µM (inactive) | GI50 (Hs-578T): 13.5 µM (inactive) | GI50 (HCT-116): 4.57 µM (inactive) | GI50 (OVCAR-5): 14 µM (inactive) | GI50 (BT-549): 14.2 µM (inactive) | GI50 (NCI-H460): 10.8 µM (inactive) | GI50 (SF-268): 15.9 µM (inactive) | GI50 (LOX IMVI): 11 µM (inactive) | GI50 (EKVX): 3.66 µM (inactive) | GI50 (SNB-75): 13.5 µM (inactive) | GI50 (PC-3): 24 µM (inactive) | GI50 (M14): 14.1 µM (inactive) | GI50 (COLO 205): 10.1 µM (inactive) | GI50 (K562): 13.9 µM (inactive)

CCN1C(=O)C(=C/C=C/c2ccc(N(CC)CC)cc2)C(=O)N(CC)C1=S
GI50 (HCT-15): > 100 µM | GI50 (KM12): > 100 µM (inactive) | GI50 (UO-31): > 100 µM (inactive) | GI50 (OVCAR-8): > 100 µM (inactive) | GI50 (MDA-N): 74.8 µM (inactive) | GI50 (Hs-578T): > 100 µM (inactive) | GI50 (HCT-116): > 100 µM (inactive) | GI50 (OVCAR-5): > 100 µM (inactive) | GI50 (BT-549): 40.7 µM (inactive) | GI50 (NCI-H460): > 100 µM (inactive) | GI50 (DU-145): > 100 µM (inactive) | GI50 (SF-268): > 100 µM (inactive) | GI50 (LOX IMVI): > 100 µM (inactive) | GI50 (EKVX): > 100 µM (inactive) | GI50 (PC-3): 72.4 µM (inactive) | GI50 (M14): > 100 µM (inactive) | GI50 (COLO 205): > 100 µM (inactive) | GI50 (K562): 83.9 µM (inactive)

CC(C)c1ccc2nc3ccc(C(=O)NCCN(C)C)cn3c(=O)c2c1
GI50 (HCT-15): 13.8 µM | GI50 (KM12): 17.3 µM (inactive) | GI50 (UO-31): 14.6 µM (inactive) | GI50 (OVCAR-8): 18.8 µM (inactive) | GI50 (MDA-N): 16.4 µM (inactive) | GI50 (Hs-578T): 15.2 µM (inactive) | GI50 (HCT-116): 13.9 µM (inactive) | GI50 (OVCAR-5): 14.7 µM (inactive) | GI50 (BT-549): 14.2 µM (inactive) | GI50 (NCI-H460): 17.6 µM (inactive) | GI50 (DU-145): 34.7 µM (inactive) | GI50 (SF-268): 17.5 µM (inactive) | GI50 (EKVX): 16.4 µM (inactive) | GI50 (SNB-75): 10.4 µM (inactive) | GI50 (PC-3): 13.6 µM (inactive) | GI50 (M14): 14.6 µM (inactive) | GI50 (COLO 205): 16.2 µM (inactive) | GI50 (K562): 2.57 µM (inactive)

Cc1ccc(S(=O)(=O)Nn2c(O)c(C#N)c(-c3ccc(Cl)cc3)c(C#N)c2=O)cc1
GI50 (HCT-15): > 100 µM | GI50 (KM12): > 100 µM (inactive) | GI50 (OVCAR-8): > 100 µM (inactive) | GI50 (MDA-N): > 100 µM (inactive) | GI50 (Hs-578T): 74.3 µM (inactive) | GI50 (HCT-116): > 100 µM (inactive) | GI50 (OVCAR-5): > 100 µM (inactive) | GI50 (BT-549): > 100 µM (inactive) | GI50 (NCI-H460): > 100 µM (inactive) | GI50 (SF-268): > 100 µM (inactive) | GI50 (LOX IMVI): > 100 µM (inactive) | GI50 (EKVX): > 100 µM (inactive) | GI50 (SNB-75): > 100 µM (inactive) | GI50 (PC-3): > 100 µM (inactive) | GI50 (M14): > 100 µM (inactive) | GI50 (COLO 205): > 100 µM (inactive) | GI50 (K562): > 100 µM (inactive)

CCC(C)C1=C(O)[N+]2([O-])Oc3ccc(-c4c(O)c(O)c(-c5ccc(OC(C)=O)cc5)c(OC(C)=O)c4OC(C)=O)cc3OC2(C(C)CC)C(=O)N1O (centres undefined)
GI50 (HCT-15): > 50 µM | GI50 (KM12): > 50 µM (inactive) | GI50 (UO-31): > 50 µM (inactive) | GI50 (OVCAR-8): > 50 µM (inactive) | GI50 (MDA-N): 36.3 µM (inactive) and 24.3 µM (inactive) | GI50 (Hs-578T): > 50 µM (inactive) | GI50 (OVCAR-5): > 50 µM (inactive) | GI50 (BT-549): 45.6 µM (inactive) | GI50 (NCI-H460): > 50 µM (inactive) | GI50 (DU-145): > 50 µM (inactive) | GI50 (SF-268): 41.2 µM (inactive) | GI50 (LOX IMVI): 38.3 µM (inactive) and 37.2 µM (inactive) | GI50 (EKVX): > 50 µM (inactive) | GI50 (PC-3): > 50 µM (inactive) | GI50 (M14): > 50 µM (inactive) | GI50 (COLO 205): > 50 µM (inactive) | GI50 (K562): 28.8 µM (inactive) and 15.4 µM (inactive)
